Experiments:
[1] = target: Horseradish peroxidase (HRP) conjugated wheat germ agglutinin (Armoracia rusticana, UniProt P00433); settings: mouse intestine section
Protocol: Sections of paraffin-embedded mouse intestine were deparaffinized, and non-specific binding sites were blocked by treatment for thirty minutes in PBS-blocking buffer (PBS-BB) (0.1 M phosphate buffered saline, pH 7.2; 1.0% bovine serum albumin, 0.2% non-fat powdered milk; and 0.3% Triton X-100). Horseradish peroxidase (HRP) conjugated wheat germ agglutinin (Sigma; St. Louis, Mo.) at a concentration of 10 μg/ml in PBS-BB was incubated on the sections for one hour at room temperature. Sections were then washed in PBS (three×five minutes each wash) and Tris (0.1 M Tris, pH 8.5; three×three minutes each wash). N-(5-hydroxypentyl)-3-(p-hydroxyphenyl) propionamide (HHPA), 1 mg/ml in Tris containing 0.003% H2O2, was then added to the sections at room temperature for ten minutes. Sections were then washed in Tris (three×three minutes each wash) and mounted with Tris:Glycerol (1:1) and coverslipped. Sections were viewed with a Zeiss Axioskop microscope equipped with epifluorescence and filter sets with excitation/emission characteristics of 360 nm/>400 nm (blue-white fluorescence); 490 nm/520 nm (green fluorescence); and 550 nm/570 nm (red fluorescence). Sections were photographed with a Zeiss MC100 camera system.
Wheat germ agglutinin binds to N-acetylglucosamine residues present in abundance in intestinal mucin producing goblet cells. […] The microscopic field was then illuminated for one minute at 360 nm and reexamined as described above. […] Original magnifications 400×.

[2] = Fluorescent signal stability under continuous excitation (automatic exposure time, ASA 1600); assay type: physicochemical; settings: mouse brain section
Protocol: Sections of paraffin-embedded mouse brain were deparaffinized and non-specific binding sites were blocked by treatment for thirty minutes in PBS-BB. Monoclonal antibody against microtubule associated protein-2 (Sigma) was diluted 1:100,000 in PBS-BB and incubated on the sections overnight at 4° C. Sections were then washed in PBS (three×five minutes each wash) and incubated at room temperature for one hour with HRP-conjugated donkey anti-mouse antibodies (Jackson Immunoresearch Laboratories; West Grove, Pa.) diluted 1:1000 in PBS-BB. […]
The fluorescein labeled section was viewed with a filter set having excitation/emission peaks at 490 nm/520 nm. […] Photomicrographs using standard two second exposures were taken at both time points to assess changes in fluorescence intensity over time. In addition, fluorescence intensity was semi-quantitated at both time points by recording the automatic exposure time required for photomicrographic documentation in a standard field using an ASA setting of 1600 and the MC100 camera system (Zeiss). Using this measure, short exposure times correlate with bright-fluorescence and long exposure times with dim fluorescence.

Sequence of Horseradish peroxidase (HRP) conjugated wheat germ agglutinin (P00433 31-338 limits assumed): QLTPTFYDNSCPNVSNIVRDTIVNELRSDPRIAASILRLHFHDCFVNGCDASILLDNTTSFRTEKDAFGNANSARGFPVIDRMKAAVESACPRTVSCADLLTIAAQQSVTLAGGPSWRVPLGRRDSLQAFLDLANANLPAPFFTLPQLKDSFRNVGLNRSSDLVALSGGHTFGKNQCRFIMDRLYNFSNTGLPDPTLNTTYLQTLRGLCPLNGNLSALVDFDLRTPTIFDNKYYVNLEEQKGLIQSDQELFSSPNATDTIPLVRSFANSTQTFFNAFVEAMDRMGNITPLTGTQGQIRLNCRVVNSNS

fluorescence signal, blue-white filter set ([1]; 360 nm excitation, before one minute illumination at 360 nm): weak fluorescence signal
fluorescent signal, all three filter sets (blue-white, green, red) ([1]; after one minute illumination at 360 nm, localized to goblet cells): Intense fluorescent signals
fluorescence signal, green or red filter sets ([1]; before one minute illumination at 360 nm): almost no signal
time required for a standard ASA 1600 exposure ([2]; after fifteen minutes of continuous excitation): 3.1 s
time required for a standard ASA 1600 exposure ([2]; time zero, short exposure = bright fluorescence): 4.1 s
SMILES: O=C(CCc1ccc(O)cc1)NCCCCCO [HHPA, N-(5-hydroxypentyl)-3-(p-hydroxyphenyl) propionamide]
